Test results: US20140024596A1, “DISEASE INHIBITING AGENT” (NITTA GELATIN INC., priority 2010, published 2014)
Non-standard residues stand in square brackets, D forms with d. Residues, ends and D or L forms follow the SMILES beside them. Hyp = O=C(O)[C@@H]1C[C@@H](O)CN1

Key:
[1] = in vivo; conditions: male, Wistar, rat, po, 215 nmol/10 mL
Experimental: Male Wistar rats (170 g) were fasted overnight before subjected to the experiment.
As a test method, heart and portal vein of each rat were attached with a cannula to make one-directional perfusion.
To a perfusion sample solution (5.0 mL) collected from the portal vein was added 0.5 mL of 30% sulfosalicylic acid and stirred vigorously, and left overnight in a refrigerator. This sample was centrifuged at 3000 rpm for 10 minutes, to remove protein. For the supernatant of centrifugation, an amount of hydroxyproline in 0.5 mL was colorimetrically quantified, and an amount of free-type Hyp was obtained.
Further, 3.0 mL of the supernatant of centrifugation was weighed into a screw-top test tube, and thereto an equivalent amount of concentrated hydrochloric acid was added, and hydrolyzed at 110° C. for 24 hours. After concentrating and drying the resultant in an evaporator, and removing the hydrochloric acid, the solid was dissolved in 5 mL of distilled water, and several drops of a saturated lithium hydroxide solution was added thereto to adjust pH at 5 to 7, and the volume was fixed at 10 mL. For 2 mL of this solution, an amount of hydroxyproline was colorimetrically quantified to obtain a total Hyp amount. The value obtained by subtracting the amount of free-type Hyp before hydrolysis from the total Hyp amount after hydrolysis is an amount of peptide-form Hyp. From this amount of peptide-form Hyp, a quantitative value of absorption of each peptide molecule into rat portal vein perfusate in the test sample was first determined.
In the above description, the colorimetric quantification of the amount of hydroxyproline was conducted by the Firschein and Shill method described concretely in Evaluation test 4.
Also, identification and quantification of OG, PO, Ala-Hyp, and Ser-Hyp were conducted by HPLC analysis and mass spectrometry (LC/MS/MS) as will be described later.
Analysis of the peptide molecules in the perfusate was conducted by reverse-phase HPLC analysis. As a HPLC device, an LCSS-905 system manufactured by JASCO Corporation, consisting of a liquid feeding pump, a degasser, an automatic sampler, a column open, a UV spectrophotometer, a printer, and a system controller was used. As a reverse-phase column, Nova Pak C18 (3.9×150 mm) was used.
A linear gradient mobile phase of a 0.1% TFA-containing acetonitrile-water system was used, and the injection amount of the sample was 70 μL and the flow rate was 1 mL/min.
As a HPLC device, U980HPLC (manufactured by JASCO Corporation) attached with an ODS(C18) column (Mightysil RP-18, 2×250 mm, manufactured by Kanto Chemical Co Ltd) was used. As a mobile phase solvent, a 0.2% formic acid-containing acetonitrile-water system was used, and the concentration of acetonitrile was increased from 0% to 40% over 40 minutes by a linear gradient, and washed with 100% acetonitrile for 10 minutes. The sample injection amount was 10 μL, and the column temperature was 40° C.
MS analysis was conducted by a MS/MS system using a Quattro LC mass spectrophotometer (Micromass, Manchester, UK) according to a four-channel Multiple Reaction Monitoring method. To be more specific, the elute from HPLC was monitored by m/z being [M+H]^+ and by m/s of its fragment ion species. The monitoring was conducted by using [M+H]^+ m/z: 229.1>132.1 for PO, [M+H]^+ m/z: 219.1>132.1 for Ser-Hyp, [M+H]^+ m/z: 203.1>132.1 for Ala-Hyp, and [M+H]^+ m/z: 189.1>86.1 for OG.
The perfusate was treated with sulfosalicylic acid in a final concentration of 3%, to remove protein. The supernatant liquid was lyophilized and 10 mg of a dry powder was dissolved in distilled water, and subjected to a positive ion exchange resin column to obtain an ammonia elution fraction. After removing the solvent, the fraction was dissolved in distilled water and subjected to LC/MS/MS analysis.

[2] = tested on: osteoclast (mouse primary bone marrow cell culture); assay: Evaluation Test 1: osteoclast differentiation culture on plastic dish (TRAP-positive multinucleated giant cells); assay type: cell-based; conditions: final concentration 625 μM, 6 days culture, control (blank) = 100, n = 6
Experimental: Evaluation was made in conformance with an osteoclast differentiation culture method by Kobayashi Y. et al. [J. Bone Miner. Metab. (2004) 22: p. 318-328]. […] As a control, TRAP inhibiting activity when no peptide was added (blank) was also examined.

[3] = tested on: osteoclast (precursor cells of osteoclasts and bone marrow stromal cells on ivory piece); assay: Evaluation Test 1: Pit assay, osteoclast cultured on ivory piece; assay type: cell-based, mouse; conditions: control (blank) = 100, n = 6; for Relative number of TRAP-positive multinucleated giant cells (osteoclasts) by cultivation on ivory piece (%): cultured about 1 week on ivory piece; for Relative number of Pit (%): resorption cavities on ivory piece, about 1 week
Experimental: Further, the inhibition degree of differentiation and activation of osteoclast by each of the peptide molecules, and amino acids was evaluated by the following Pit assay. In brief, the Pi assay in which osteoclast is cultured on an ivory piece was conducted in conformance with Kakudo S, et al J. Bone Miner. Metab. (1996) 14: 129-136. The concrete procedure is as follows. […] Then, after removing the cells from the ivory piece with a silicone rubber policeman, the ivory piece was stained with an acid hematoxylin solution for several minutes. At this time, the number of TRAP staining positive multinucleated giant cells (osteoclast) was counted by TRAP staining, and a relative number with respect to the number of cells in control (blank) was calculated. Then, the Pit number (number of resorption cavity) by osteoclast was counted under a microscope, and the degree of inhibiting osteoclast by each peptide to be tested was indicated by a relative ratio to blank (control).

level at time molar [1] [µM]	SMILES	other results
0.9	O=C(O)CNC(=O)[C@@H]1C[C@@H](O)CN1C(=O)[C@@H]1CCCN1C(=O)CNC(=O)[C@@H]1C[C@@H](O)CN1C(=O)[C@@H]1CCCN1C(=O)CNC(=O)[C@@H]1C[C@@H](O)CN1C(=O)[C@@H]1CCCN1 [(POG)3, (Pro-Hyp-Gly)3] (H-P[Hyp]GP[Hyp]GP[Hyp]G-OH)	–
0.1	N=C(N)NCCC[C@H](NC(=O)CNC(=O)[C@@H]1CCCN1C(=O)[C@H](CCCCN)NC(=O)CNC(=O)[C@@H]1CCCN1C(=O)[C@H](Cc1c[nH]cn1)NC(=O)CNC(=O)[C@H](CC(=O)O)NC(=O)[C@H](CCCCN)NC(=O)[C@@H](N)CCC(=O)O)C(=O)N1C[C@H](O)C[C@H]1C(=O)NCC(=O)N[C@@H](CCC(=O)O)C(=O)O [EKDGHPGKPGROGE] (H-EKDGHPGKPGR[Hyp]GE-OH)	–
0.08	NCC(=O)N1CCC[C@H]1C(=O)N1C[C@H](O)C[C@H]1C(=O)NCC(=O)N1CCC[C@H]1C(=O)N1C[C@H](O)C[C@H]1C(=O)NCC(=O)N1CCC[C@H]1C(=O)N1C[C@H](O)C[C@H]1C(=O)NCC(=O)O [G(POG)3, Gly-(Pro-Hyp-Gly)3] (H-GP[Hyp]GP[Hyp]GP[Hyp]G-OH)	–
0.8	O=C(O)CNC(=O)[C@@H]1C[C@@H](O)CN1C(=O)[C@@H]1CCCN1C(=O)CNC(=O)[C@@H]1C[C@@H](O)CN1C(=O)[C@@H]1CCCN1C(=O)CNC(=O)[C@@H]1C[C@@H](O)CN1C(=O)[C@@H]1CCCN1C(=O)CNC(=O)[C@@H]1C[C@@H](O)CN1C(=O)[C@@H]1CCCN1 [(POG)4, (Pro-Hyp-Gly)4] (H-P[Hyp]GP[Hyp]GP[Hyp]GP[Hyp]G-OH)	–
0.1	CC(C)C[C@H](NC(=O)[C@H](Cc1c[nH]cn1)NC(=O)CNC(=O)[C@H](CC(=O)O)NC(=O)CNC(=O)[C@@H](N)CCC(=O)O)C(=O)NCC(=O)N[C@@H](CCCCN)C(=O)N1CCC[C@H]1C(=O)NCC(=O)N[C@@H](CCCNC(=N)N)C(=O)N1C[C@H](O)C[C@H]1C(=O)NCC(=O)N[C@@H](CCC(=O)O)C(=O)O [EGDGHLGKPGROGE] (H-EGDGHLGKPGR[Hyp]GE-OH)	–

The next lines start with the molecule.

SMILES	level at time molar [1] [µM]	other results
NCC(=O)N1CCC[C@H]1C(=O)N1C[C@H](O)C[C@H]1C(=O)NCC(=O)N1CCC[C@H]1C(=O)N1C[C@H](O)C[C@H]1C(=O)NCC(=O)O [G(POG)2, Gly-(Pro-Hyp-Gly)2] (H-GP[Hyp]GP[Hyp]G-OH; N-terminus and C-terminus assumed)	0.1	–
C[C@H](N)C(=O)N1C[C@H](O)C[C@H]1C(=O)O [Ala-Hyp] (H-Ala-[Hyp]-OH)	1.2	–
O=C(O)CNC(=O)[C@@H]1C[C@@H](O)CN1C(=O)[C@@H]1CCCN1C(=O)CNC(=O)[C@@H]1C[C@@H](O)CN1C(=O)[C@@H]1CCCN1 [(POG)2, (Pro-Hyp-Gly)2] (H-P[Hyp]GP[Hyp]G-OH; N-terminus and C-terminus assumed)	1.1	–
O=C(O)[C@@H]1C[C@@H](O)CN1C(=O)[C@@H]1CCCN1 [PO, Pro-Hyp] (H-Pro-[Hyp]-OH)	21.3	–
O=C(O)CNC(=O)[C@@H]1C[C@@H](O)CN1 [OG, Hyp-Gly] (H-[Hyp]-Gly-OH)	9.8	–
O=C(O)[C@@H]1CCCN1 [Pro, proline]	–	Relative area of TRAP-positive multinucleated giant cells (osteoclasts) by cultivation on plastic dish (%) [2]: 125 ± 69%; Relative number of TRAP-positive multinucleated giant cells (osteoclasts) by cultivation on plastic dish (%) [2]: 119 ± 44%; Relative number of TRAP-positive multinucleated giant cells (osteoclasts) by cultivation on ivory piece (%) [3]: 119 ± 20%; Relative number of Pit (%) [3]: 121 ± 23%
O=C(O)[C@@H]1C[C@@H](O)CN1 [Hyp, hydroxyproline]	–	Relative area of TRAP-positive multinucleated giant cells (osteoclasts) by cultivation on plastic dish (%) [2]: 117 ± 13 %; Relative number of TRAP-positive multinucleated giant cells (osteoclasts) by cultivation on plastic dish (%) [2]: 126 ± 4 %; Relative number of TRAP-positive multinucleated giant cells (osteoclasts) by cultivation on ivory piece (%) [3]: 141 ± 9 %; Relative number of Pit (%) [3]: 131 ± 11 %
N[C@@H](CO)C(=O)N1C[C@H](O)C[C@H]1C(=O)O [Ser-Hyp] (H-Ser-[Hyp]-OH)	0.7	–
